Patent publication US6770624B2, “Treatment of heart failure with growth hormone” (The Regents of the University of California, priority 1997, dated 2004)

How the values were obtained:
AT1 receptor = test: Angiotensin II dose-response curves for changes in carotid arterial pressure (confirmation of AT1 receptor blockade); format: in vivo, rat; conditions: losartan 2 g/L in drinking water for 2 weeks; normal rats and rats with chronic MI
Experimental: In order to confirm AT1 receptor blockade with losartan, angiotensin II dose-response curves for changes in carotid arterial pressure were carried out in an additional 14 female Sprague-Dawley rats (260-300 g/each). Eight rats were normal, 4 untreated and 4 treated for 2 weeks with losartan (2 g/L in drinking water). In 6 rats a large MI was produced 3 to 4 weeks prior to study, of which 3 received losartan (2 g/L in drinking water) for 2 weeks and 3 were untreated.

normal rats = test: Body, organ and cardiac weights in normal rats after AT1 blockade and GH; format: in vivo, rat; conditions: mean ± SD, n=8
Experimental: Normal Rats: Normal female Sprague Dawley rats (240-260 g each) were randomized to one of the following four groups: rats receiving placebo for 6 weeks (Control group, n=8); rats treated with placebo for 6 weeks with concomitant rhGH (2 mg/kg bid) for the final 2 weeks (GH group, n=8); rats treated with relatively low-dose losartan (L) (20 mg/kg/day in drinking water) for 6 weeks with concomitant rhGH (2 mg/kg/bid, SC) during the final 2 weeks (LowL+GH, n=8); and rats treated with high dose L (2 g/L in drinking water) for 6 weeks with concomitant rhGH (2 mg/kg/bid, SC) during the final 2 weeks (HighL+GH, n=8). In these 32 animals, the responses of body weight (BW) and the weights of the heart and other selected organs were then examined.
After the hemodynamic measurements, the rats were euthanized and wet weights of heart and other selected organs, including liver, spleen, and kidney, were measured. Cardiac fixation was then performed as described by R. L. Duerr (1996) supra. In brief, polyethylene catheters were introduced into the LV apex and the descending aorta. The LV chamber was filled from a reservoir and maintained at 10 mmHg. After washout of blood from the coronary arteries with heparinized saline, the myocardium was perfused retrogradely from the aorta with 10% buffered formalin at a constant pressure of 60 mmHg for 20 minutes. The heart was then excised and immersed in 10% formalin for 24 hours. Subsequently, the atria and adhesions were dissected away and the right ventricle (RV) and LV were separated and weighted, the interventricular septum being included with the LV. The right tibia was dissected and its length from the condyles to the tip of the medial malleolus was measured with a micrometer caliper by the method of Yin et al., Am J Physiol (1982); 243. To compare heart weights among groups, the weights were normalized by tibial length (TL) as well as by body weight (BW).

Molecule: CCCCc1nc(Cl)c(CO)n1Cc1ccc(-c2ccccc2-c2nn[nH]n2)cc1 [Losartan, losartan]
- shift of angiotensin II-blood pressure dose-response curves (AT1 receptor): marked rightward shifts

Molecule: GH: recombinant human growth hormone; placebo 6 weeks with rhGH 2 mg/kg bid for the final 2 weeks
- BW (body weight) (normal rats; 6 weeks, rhGH final 2 weeks): 319.9 ± 15.9 g
- Kidney weight (normal rats; 6 weeks, rhGH final 2 weeks): 2.30 ± 0.19 g
- Liver weight (normal rats; 6 weeks, rhGH final 2 weeks): 13.69 ± 0.94 g
- Spleen weight (normal rats; 6 weeks, rhGH final 2 weeks): 1.21 ± 0.10 g
- TL (tibia length) (normal rats; 6 weeks, rhGH final 2 weeks): 4.05 ± 0.08 cm
- HW/BW (normal rats): 0.45 ± 0.04%
- LV/BW (normal rats): 0.33 ± 0.01%
- RV/BW (normal rats): 0.08 ± 0.01%
- LV wt (normal rats; measured after fixation): 1.04 ± 0.06 g
- RV wt (normal rats; measured after fixation): 0.26 ± 0.02 g
- HW (heart weight) (normal rats; measured before fixation): 1.42 ± 0.12 g
